In the assay the test system is normal human dermal fibroblasts (NHDF) R9PF2. Briefly: NHDF proliferation by incorporation of tritiated thymidine. It counts as cell-based. As to conditions: dilution in culture medium at 0.011 mg/mL; 48 hours. The protocol: Type: pool of normal human dermal fibroblasts (NHDF) R9PF2
DMEM (Dulbecco's Modified Eagle Medium, Invitrogen 21969035)
Dressings having the size of the wells, prepared as described previously using the elastomeric masses of examples 1 to 5, and also dilutions of the Sepinov EMT 10 copolymer to 0.011 mg/mL and of potassium sucrose octasulfate to 0.00064 mg/mL, were tested.
Effects on Proliferation:
The fibroblasts were seeded into 12-well plates at low density (60% confluence), and then the cells were treated with the dilutions or pieces of dressings were applied to these plates and kept in place by means of a plug (called “test”). A control without dressing, without dilution but with plug was carried out (called “control”).
The cells were then incubated for 24 hours, 48 hours and 72 hours. For each incubation time, tritiated thymidine ([methyl-3H]-thymidine, Amersham TRK 686 2.5 μCi/mL final concentration) was added for the final 24 hours of incubation and then the DNA of the cells of the cell layers was extracted and purified and the radioactivity incorporated into the DNA was counted using a scintillation counter.
The results obtained are expressed as counts per minute (cpm), then as percentage relative to the control according to the following formula:
%control=(Cpmtest/cmpcontrol)×100 […]

Take `O=S(=O)([O-])OC[C@H]1O[C@@](COS(=O)(=O)[O-])(O[C@H]2O[C@H](COS(=O)(=O)[O-])[C@@H](OS(=O)(=O)[O-])[C@H](OS(=O)(=O)[O-])[C@H]2OS(=O)(=O)[O-])[C@@H](OS(=O)(=O)[O-])[C@@H]1OS(=O)(=O)[O-].[K+].[K+].[K+].[K+].[K+].[K+].[K+].[K+]` [Potassium sucrose octasulfate, potassium sucrose octasulfate]: the “NHDF proliferation, % control” value worked out at 106 % control.

(Values after patent US20160296658A1, “NOVEL ACTIVE INGREDIENT IN CICATRIZATION AND USE THEREOF” (LABORATOIRES URGO, priority 2007, published 2016).)
